Reference: patent US12486302B2, “Somatostatin receptor antagonist compounds and methods of using the same” (CDRD VENTURES INC., priority 2016, dated 2025)
pIC50: −log10 of the molar value. *1 amine or outer side, *2 acyl side, *3 side chain or, on linkers, in order; H or OH if unused. Where a SMILES comes first, the peptide text is derived from it. Bridges are numbered along the chain shown (N, C = ends). Side-chain parts run from the residue outwards. [ ]: non-standard residue; d: D form. The star is where a group is joined. ξ: configuration not given here. dPhe(4-CONH2) = NC(=O)c1ccc(C[C@@H](N)C(=O)O)cc1; NMePhe(4-Cl) = CN[C@@H](Cc1ccc(Cl)cc1)C(=O)O; dPhe(4-NH2) = Nc1ccc(C[C@@H](N)C(=O)O)cc1; Phe(4-Cl) = N[C@@H](Cc1ccc(Cl)cc1)C(=O)O; ξPhe(4-Cl) = NC(Cc1ccc(Cl)cc1)C(=O)O; NMeY = CN[C@@H](Cc1ccc(O)cc1)C(=O)O; dNMeY = CN[C@H](Cc1ccc(O)cc1)C(=O)O; NMeT = CN[C@H](C(=O)O)[C@@H](C)O; Lys(Me) = CNCCCC[C@H](N)C(=O)O; Thr(3ξ) = CC(O)[C@H](N)C(=O)O; NMeK = CN[C@@H](CCCCN)C(=O)O; ξY = NC(Cc1ccc(O)cc1)C(=O)O; NMeC = CN[C@@H](CS)C(=O)O; dDap = NC[C@@H](N)C(=O)O; Dap = NC[C@H](N)C(=O)O; CO = O=C([*:1])[*:2]; Bz = O=C(c1ccccc1)*; NHPh = c1ccc(N*)cc1

These molecules were tested against somatostatin type 2 (SSTR2) receptors (Homo sapiens, UniProt P30874) (assay: PathHunter β-Arrestin assay, antagonist mode, SSTR2). Conditions: agonist challenge at EC80.
Format: cell-based
Protocol: The PathHunter® β-Arrestin assay monitors the activation of a GPCR in a homogenous, non-imaging assay format using a technology developed by DiscoveRx called Enzyme Fragment Complementation (EFC) with β-galactosidase (β-Gal) as the functional reporter. […] EA is fused to β-Arrestin and […] is fused to the GPCR of interest. When the GPCR is activated and β-Arrestin is recruited to the receptor, ED and EA complementation occurs, restoring β-Gal activity which is measured using chemiluminescent PathHunter® Detection Reagents. For antagonist determination, cells were pre-incubated with the compounds followed by agonist challenge at the EC80 concentration. Data was normalized to the maximal and minimal response observed in the presence of EC80 ligand and vehicle. Compound activity was analyzed using CBIS data analysis suite ChemInnovation, CA). Percentage inhibition was calculated using the following formula: % Inhibition=100%×(1−(mean signal of test sample-mean signal of vehicle control)/(mean signal of EC80 control-mean signal of vehicle control)). Percentage inhibition was calculated at 10 concentrations in steps on a Log 3 scale ranging from […] to 5e-5 μM. The results were plotted for IC50 calculation.

Chain of somatostatin type 2 (SSTR2) receptors (P30874 whole entry): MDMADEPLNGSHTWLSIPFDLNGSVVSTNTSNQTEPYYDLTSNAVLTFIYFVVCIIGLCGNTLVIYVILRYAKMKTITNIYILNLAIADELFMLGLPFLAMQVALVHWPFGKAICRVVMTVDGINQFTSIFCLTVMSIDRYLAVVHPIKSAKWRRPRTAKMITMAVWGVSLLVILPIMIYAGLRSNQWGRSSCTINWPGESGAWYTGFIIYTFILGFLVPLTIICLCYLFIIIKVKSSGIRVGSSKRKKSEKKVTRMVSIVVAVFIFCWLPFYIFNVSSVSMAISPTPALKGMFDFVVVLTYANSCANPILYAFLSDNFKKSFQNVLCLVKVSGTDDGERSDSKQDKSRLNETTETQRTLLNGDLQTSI

Row | SMILES | pIC50
1 | CC(=O)NCCCC[C@@H]1NC(=O)[C@@H](Cc2ccc(C(N)=O)cc2)NC(=O)[C@H](Cc2ccc(O)cc2)NC(=O)[C@H](NC(=O)[C@@H](N)Cc2ccc(Cl)cc2)CSSC[C@@H](C(=O)NC(Cc2ccc(O)cc2)C(N)=O)NC(=O)[C@H]([C@@H](C)O)NC1=O (stereo partly drawn) [Compound 26, H-Cpa-cyclo[DCys- Tyr-D-(4- carbamoyl)Phe-(N- Acetyl)Lys-Thr-Cys]- DTyr-NH2] (H-[Phe(4-Cl)][dC]Y[dPhe(4-CONH2)]K(Ac)TC[ξY]-NH2; disulfide 2-7) | < 6.00
2 | CC(O)[C@@H]1NC(=O)[C@H](CCCCN)NC(=O)[C@@H](Cc2ccc(C(N)=O)cc2)NC(=O)[C@H](Cc2ccc(O)cc2)NC(=O)[C@H](NC(=O)[C@@H](N)Cc2ccc(Cl)cc2)CSC(=O)NC[C@@H](C(=O)N[C@H](Cc2ccc(O)cc2)C(N)=O)NC1=O (stereo partly drawn) [Compound 62, H-Cpa-cyclo[DCys- Tyr-DPhe(4- CONH2)- Lys-Thr-Dap]- DTyr-NH2] (H-[Phe(4-Cl)][dC]Y[dPhe(4-CONH2)]K[Thr(3ξ)][Dap][dY]-NH2; linker 2-7 via CO) | < 6.00
3 | C[C@@H](O)[C@@H]1NC(=O)[C@H](CCCCN)NC(=O)[C@@H](Cc2ccc(C(N)=O)cc2)NC(=O)[C@H](Cc2ccc(O)cc2)NC(=O)[C@@H](NC(=O)[C@@H](N)Cc2ccc(Cl)cc2)CC=CC[C@@H](C(=O)N[C@H](Cc2ccc(O)cc2)C(N)=O)NC1=O (stereo in doubt) [Compound 68] | < 6.00
4 | CC(O)[C@@H]1NC(=O)[C@H](CCCCN)NC(=O)[C@@H](Cc2ccc(C(N)=O)cc2)NC(=O)[C@H](Cc2ccc(O)cc2)NC(=O)[C@H](NC(=O)[C@@H](N)Cc2ccc(Cl)cc2)CNC(=O)SC[C@@H](C(=O)N[C@H](Cc2ccc(O)cc2)C(N)=O)NC1=O (stereo in doubt) [Compound 61, H-Cpa-cyclo[Dap- Tyr-DPhe (4-CONH2)- Lys-Thr-Cys]- DTyr-NH2] | < 6.00
5 | C[C@@H](O)[C@@H]1NC(=O)[C@H](CCCCN)NC(=O)[C@@H](Cc2ccc(NC(=O)Nc3ccccc3)cc2)NC(=O)[C@H](Cc2ccc(O)cc2)NC(=O)[C@H](NC(=O)[C@@H](N)Cc2ccc(Cl)cc2)CNC(=O)C[C@@H](C(=O)N[C@H](Cc2ccc(O)cc2)C(N)=O)NC1=O [Compound 70] (H-[Phe(4-Cl)][dDap]Y[dPhe(4-NH2)]([CO-NHPh])KTD[dY]-NH2; lactam 2-7) | < 6.00
6 | CN[C@@H](Cc1ccc(Cl)cc1)C(=O)N[C@@H]1CSSC[C@@H](C(=O)N(C)[C@H](Cc2ccc(O)cc2)C(N)=O)NC(=O)[C@H]([C@@H](C)O)N(C)C(=O)[C@H](CCCCN)NC(=O)[C@@H](Cc2ccc(C(N)=O)cc2)NC(=O)[C@H](Cc2ccc(O)cc2)N(C)C1=O [Compound 80, H-NMeCpa-[DCys-NMeTyr-DPhe(4-carbamoyl)-Lys-NMeThr-Cys]-NMeTyr-NH2] (H-[NMePhe(4-Cl)][dC][NMeY][dPhe(4-CONH2)]K[NMeT]C[dNMeY]-NH2; disulfide 2-7) | < 6.00
7 | C[C@@H](O)[C@@H]1NC(=O)[C@H](CCCCN)NC(=O)[C@@H](Cc2ccc(C(N)=O)cc2)NC(=O)[C@H](Cc2ccc(O)cc2)NC(=O)[C@H](NC(=O)[C@@H](N)Cc2ccc(Cl)cc2)CSSC[C@@H](C(=O)N[C@H](Cc2ccc(O)cc2)C(N)=O)N(C)C1=O [Compound 76, H-Cpa-[DCys- Tyr-DPhe (4-carbamoyl)- Lys-Thr-NMeCys]- DTyr-NH2] (H-[Phe(4-Cl)][dC]Y[dPhe(4-CONH2)]KT[NMeC][dY]-NH2; disulfide 2-7) | 6.40

More lines, in order of rising pIC50, values ahead:

Row | pIC50 | SMILES
8 | 6.40 | C[C@@H](O)[C@@H]1NC(=O)[C@H](CCCNC(=N)N)NC(=O)[C@@H](Cc2ccc(C(N)=O)cc2)NC(=O)[C@H](Cc2ccc(O)cc2)NC(=O)[C@H](NC(=O)[C@@H](N)Cc2ccc(Cl)cc2)CSSC[C@@H](C(=O)NC(Cc2ccc(O)cc2)C(N)=O)NC1=O (stereo partly drawn) [Compound 29, H-Cpa-cyclo[DCys- Tyr-D-(4- carbamoyl)Phe-Arg- Thr-Cys]-DTyr-NH2] (H-[Phe(4-Cl)][dC]Y[dPhe(4-CONH2)]RTC[ξY]-NH2; disulfide 2-7)
9 | 7.25 | CC(C)[C@@H]1NC(=O)[C@H](CCCCN)NC(=O)[C@@H](Cc2ccc(C(N)=O)cc2)NC(=O)[C@H](Cc2ccc(O)cc2)NC(=O)[C@H](NC(=O)[C@@H](N)Cc2ccc(Cl)cc2)CSSC[C@@H](C(=O)NC(Cc2ccc(O)cc2)C(N)=O)NC1=O (stereo partly drawn) [Compound 33, H-Cpa-cyclo[DCys- Tyr-D-4- (carbamoyl)Phe-Lys- Val-Cys]-DTyr-NH2] (H-[Phe(4-Cl)][dC]Y[dPhe(4-CONH2)]KVC[ξY]-NH2; disulfide 2-7)
10 | 7.46 | C[C@@H](O)[C@@H]1NC(=O)[C@H](CCCCN)NC(=O)[C@@H](Cc2ccc(NC(=O)c3ccccc3)cc2)NC(=O)[C@H](Cc2ccc(O)cc2)NC(=O)[C@H](NC(=O)[C@@H](N)Cc2ccc(Cl)cc2)CSSC[C@@H](C(=O)NC(Cc2ccc(O)cc2)C(N)=O)NC1=O (stereo partly drawn) [Compound 27, H-Cpa-cyclo[DCys- Tyr-D-(4- Benzamidophenyl) Phe-Lys-Thr- Cys]-DTyr-NH2] (H-[Phe(4-Cl)][dC]Y[dPhe(4-NH2)](Bz)KTC[ξY]-NH2; disulfide 2-7)
11 | 7.97 | NCCCC[C@@H]1NC(=O)[C@@H](Cc2ccc(C(N)=O)cc2)NC(=O)[C@H](Cc2ccc(O)cc2)NC(=O)[C@H](NC(=O)[C@@H](N)Cc2ccc(Cl)cc2)CSSC[C@@H](C(=O)NC(Cc2ccc(O)cc2)C(N)=O)NC(=O)[C@H](CO)NC1=O (stereo partly drawn) [Compound 37, H-Cpa-cyclo[DCys- Tyr-D-(4- carbamoyl)Phe-Lys- Ser-Cys]-DTyr-NH2] (H-[Phe(4-Cl)][dC]Y[dPhe(4-CONH2)]KSC[ξY]-NH2; disulfide 2-7)
12 | 8.01 | C[C@@H](O)[C@@H]1NC(=O)[C@H](CCCCN)NC(=O)[C@@H](Cc2ccc(C(N)=O)cc2)NC(=O)[C@H](Cc2ccc(O)cc2)NC(=O)[C@H](NC(=O)[C@@H](N)Cc2ccc(Cl)cc2)CSSC[C@@H](C(=O)NC(Cc2ccc(Cl)cc2)C(N)=O)NC1=O (stereo partly drawn) [Compound 42, H-Cpa-cyclo[DCys- Tyr-D-(4- carbamoyl)Phe- Lys-Thr-Cys]- 4-Cl-D-Phe-NH2] (H-[Phe(4-Cl)][dC]Y[dPhe(4-CONH2)]KTC[ξPhe(4-Cl)]-NH2; disulfide 2-7)
13 | 8.24 | C[C@@H](O)[C@@H]1NC(=O)[C@H](CCCCN)N(C)C(=O)[C@@H](Cc2ccc(C(N)=O)cc2)NC(=O)[C@H](Cc2ccc(O)cc2)NC(=O)[C@H](NC(=O)[C@@H](N)Cc2ccc(Cl)cc2)CSSC[C@@H](C(=O)N[C@H](Cc2ccc(O)cc2)C(N)=O)NC1=O [Compound 72, H-Cpa-cyclo[DCys- Tyr-D-(4- carbamoyl)Phe- (N-alpha-Me)Lys- Thr-Cys]- DTyr-NH2] (H-[Phe(4-Cl)][dC]Y[dPhe(4-CONH2)][NMeK]TC[dY]-NH2; disulfide 2-7)
14 | 8.47 | CNCCCC[C@@H]1NC(=O)[C@@H](Cc2ccc(C(N)=O)cc2)NC(=O)[C@H](Cc2ccc(O)cc2)NC(=O)[C@H](NC(=O)[C@H](Cc2ccc(Cl)cc2)NC(=O)CNC(C)=O)CSSC[C@@H](C(=O)N[C@H](Cc2ccc(O)cc2)C(N)=O)NC(=O)[C@H]([C@@H](C)O)NC1=O [Compound 55, Ac-Gly-Cpa-cyclo[D-Cys-Tyr-D-Phe(4-carbamoyl)-Lys(N^ε-Me)-Thr-Cys]-D-Tyr-NH2] (Ac-G[Phe(4-Cl)][dC]Y[dPhe(4-CONH2)][Lys(Me)]TC[dY]-NH2; disulfide 3-8)
